Data set [1] concerns the target T1, FXR (Homo sapiens, UniProt Q96RI1).
T1 construct: using a full length FXR on a natural response element; expressed in transfected cells
T1 sequence (Q96RI1 1-486): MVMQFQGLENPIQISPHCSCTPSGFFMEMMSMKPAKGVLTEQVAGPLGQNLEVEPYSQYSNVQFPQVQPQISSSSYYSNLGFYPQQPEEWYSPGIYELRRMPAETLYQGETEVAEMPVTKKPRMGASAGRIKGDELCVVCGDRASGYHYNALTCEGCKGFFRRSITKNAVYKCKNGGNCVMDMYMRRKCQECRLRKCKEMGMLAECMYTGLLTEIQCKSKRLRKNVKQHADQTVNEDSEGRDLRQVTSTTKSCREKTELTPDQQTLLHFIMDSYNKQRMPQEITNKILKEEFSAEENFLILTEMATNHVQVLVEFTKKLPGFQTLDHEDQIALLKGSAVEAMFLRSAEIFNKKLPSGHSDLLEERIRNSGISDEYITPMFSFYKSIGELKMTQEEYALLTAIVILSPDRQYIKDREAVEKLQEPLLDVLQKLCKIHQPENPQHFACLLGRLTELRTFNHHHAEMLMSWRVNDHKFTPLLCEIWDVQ
As to the kind of experiment: cell-based transcription assay, FXR responsive promoter linked to a luciferase reporter. Also on record: RE: scale not given here. The conditions noted are these: for RE: RE not defined in the source. In short, it runs like this: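 Cells co-transfected with full-length FXR and a luciferase reporter carrying a natural hormone response element on a minimal promoter.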

The target of data set [2] is T2, SXR (Homo sapiens, UniProt O75469).
T2 sequence (O75469 1-434): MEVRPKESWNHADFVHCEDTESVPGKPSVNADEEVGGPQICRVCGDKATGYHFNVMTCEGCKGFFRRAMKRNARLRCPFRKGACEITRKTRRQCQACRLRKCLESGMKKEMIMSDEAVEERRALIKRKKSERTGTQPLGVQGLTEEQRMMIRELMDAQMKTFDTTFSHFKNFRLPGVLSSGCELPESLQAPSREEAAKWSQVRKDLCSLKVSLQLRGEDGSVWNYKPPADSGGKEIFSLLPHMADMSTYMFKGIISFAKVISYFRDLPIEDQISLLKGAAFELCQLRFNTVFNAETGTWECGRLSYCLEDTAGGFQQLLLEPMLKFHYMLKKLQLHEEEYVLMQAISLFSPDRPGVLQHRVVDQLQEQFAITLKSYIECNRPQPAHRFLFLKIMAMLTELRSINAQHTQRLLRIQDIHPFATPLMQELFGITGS
Kind of data set: screen against a panel of nuclear receptors: SXR activation. The format is cell-based. The settings on record: nuclear receptor panel.

The mark [3] stands for this setting: FXR activation, cell-based reporter assay, read-out: EC50.
The mark [4] stands for this setting: Tables 1-15, FXR activation, cell-based reporter assay, read-out: EC50.
Where [5] appears, read: library screening hits and leads, read-out: activity (EC50).

Molecules are shown by their SMILES. Values joined by “and” are separate entries in the source; they are usually repeats but may differ in a detail not shown here. Identical values can stand only once. Like-named read-outs stand apart in the source and are kept apart here.

These results are taken from patent US20060223879A1, “Non-steroidal farnesoid x receptor modulators” (priority 2002, published 2006).

For the molecule `COC(=O)/C=C/c1cccc(N(Cc2ccc3c(c2OC)OC(C)(C)C2C3C2(Cl)Cl)C(=O)C2CCCCC2)c1` (stereo not shown) [Compound 149], the EC50 (usually the concentration at which the effect is half-maximal) in data set [1] (setting [3]) came to 188 nM. In data set [1] (Tables 1-15), this molecule came in with an RE of 0.50. For the same molecule, the “SXR activation (in words)” value in data set [2] is reported as “potently activated SXR”.
Turning to `COC(=O)/C=C/c1cccc(N(Cc2ccc(C(C)(C)C)cc2)C(=O)C2CCCCC2)c1` [Compound 148], the concentration for a half-maximal effect (EC50) in data set [1] (setting [4]) is over 1000 nM. Further, in data set [1] (Tables 1-15), the RE was found to be 0.15.
With `COC(=O)/C=C/c1cccc(N(Cc2ccc(-c3ccc(SC)cc3)cc2)C(=O)C(C)C)c1` [Compound 216], the EC50 in data set [1] (setting [4]) came out at 51 nM. The same molecule had an RE in data set [1] (Tables 1-15) of 0.98. In addition, the “FXR activation (in words)” value in data set [1] (cell-based reporter assay) was “excellent activity”.
`CC(C)(C)OC(=O)C=Cc1ccc(CN(C(=O)C2CCCCC2)c2cccc(C=CC(N)=O)c2)cc1` [Compound 135]: the EC50 in data set [1] (setting [4]) was over 1000 nM. In addition, in data set [1] (Tables 1-15), the RE is listed as 0.50. In addition, in data set [1] (cell-based reporter assay), the “FXR activation (in words)” value is given as “marked decline in potency”.
In the case of `COC(=O)C=Cc1cccc(N(Cc2ccc(C=Cc3scnc3C)cc2)C(=O)C(C)C)c1` [Compound 211], in data set [1] (setting [4]), the EC50 was found to be 228 nM. Also, the RE in data set [1] (Tables 1-15) was 0.32.
In the case of `COC(=O)/C=C/c1cccc(N(Cc2ccc(-c3ccccc3)cc2)C(=O)C2CCCCC2)c1` [Compound 124], the EC50 in data set [1] (setting [3]) is 510 nM and 69 nM. The RE in data set [1] (Tables 1-15) amounted to 0.71.
Take `COC(=O)/C=C/c1cccc(N(Cc2ccc3c(c2OC)OC(C)(C)C=C3)C(=O)C2CCCCC2)c1` [Compound 65]: the EC50 in data set [1] (setting [3]) is 358 nM and 348 nM. The RE in data set [1] (Tables 1-15) is 0.40.
Consider `COC(=O)/C=C/c1cccc(N(Cc2ccc(-c3ccc(OC(F)(F)F)cc3)cc2)C(=O)C(C)C)c1` [Compound 251], for which the EC50 in data set [1] (setting [4]) is 219 nM. The RE in data set [1] (Tables 1-15) came to 0.78.
With `COC(=O)/C=C/c1cccc(N(Cc2ccc(-c3ccc(N(C)C)cc3)cc2)C(=O)C(C)C)c1` [Compound 260], the EC50 in data set [1] (setting [4]) came out at 57 nM. In data set [1] (Tables 1-15), the RE was 1.07. In addition, the “FXR activation (in words)” value in data set [1] (cell-based reporter assay) is reported as “excellent activity”.
In the case of `CCOCC=Cc1cccc(N(Cc2ccc(C=CC(=O)OC(C)(C)C)cc2)C(=O)C2CCCCC2)c1` [Compound 137], in data set [1] (setting [3]), the EC50 came out at 220 nM. The RE in data set [1] (Tables 1-15) worked out at 1.74.
With `CCOC(=O)/C=C/c1cccc(N(Cc2ccc3c(c2OC)OC(C)(C)C=C3)C(=O)C2CC2)c1` [Compound 30], in data set [1] (cell-based reporter assay), the “FXR activation (in words)” value is “inactive”.
In the case of `COCC=Cc1cccc(N(Cc2ccc(C=CC(=O)OC(C)(C)C)cc2)C(=O)C2CCCCC2)c1` [Compound 136], the EC50 in data set [1] (setting [3]) was determined as 243 nM. In addition, the RE in data set [1] (Tables 1-15) is recorded as 1.88.
As to `COc1c(CN(C(=O)C2CC2)c2ccccc2)ccc2c1OC(C)(C)C=C2` [Compound 26], the “FXR activation (in words)” value in data set [1] (cell-based reporter assay) is on record as “among the most active at this stage”. Besides, the EC50 in data set [1] (setting [5]) lay in the range of 5000 to 10000 nM.
As to `COC(=O)/C=C/c1cccc(N(Cc2ccc(/C=C/C(=O)OC(C)(C)C)cc2)C(=O)C2CC2)c1` [Compound 140], the EC50 in data set [1] (setting [3]) is 127 to 250 nM; in data set [1] (setting [4]) it was 250 nM. Moreover, in data set [1] (Tables 1-15), the RE was determined as 1.88.
For `COC(=O)/C=C/c1cccc(N(Cc2ccc(-c3ccc(F)c(F)c3)cc2)C(=O)C2CCCCC2)c1` [Compound 213], the EC50 in data set [1] (setting [4]) worked out at 72 nM. In data set [1] (Tables 1-15), this molecule returned an RE of 1.70. Also, the “FXR activation (in words)” value in data set [1] (cell-based reporter assay) is reported as “excellent activity”.
For the molecule `COC(=O)/C=C/c1cccc(N(Cc2ccc(-c3ccc4c(c3)OCO4)cc2)C(=O)C(C)C)c1` [Compound 245], the EC50 in data set [1] (setting [4]) was determined as 19 nM. Besides, the RE in data set [1] (Tables 1-15) is recorded as 1.25. Moreover, the “FXR activation (in words)” value in data set [1] (cell-based reporter assay) is “excellent activity”.
`COC(=O)/C=C/c1cccc(N(Cc2ccc3c(c2OC)OC(C)(C)C=C3C(=O)O)C(=O)c2ccccc2)c1` [Compound 86]: the “FXR activation (in words)” value in data set [1] (cell-based reporter assay) was “did not improve the activity”.
Turning to `COC(=O)C=Cc1ccc(CN(C(=O)C2CCCCC2)c2cccc(C=CC(=O)OC)c2)cc1` [Compound 150], in data set [1] (setting [4]), the EC50 was over 1000 nM. This molecule came in with an RE in data set [1] (Tables 1-15) of 0.87.
`COc1cc(CN(Cc2ccccc2)C(=O)NC2CCCC2)cc2c1OC(C)(C)C=C2` [Compound 18]: the EC50 in data set [1] (setting [5]) lay in the range of 5000 to 10000 nM.
Consider `COC(=O)/C=C/c1cccc(N(Cc2ccc(/C=C/C(=O)OC(C)(C)C)cc2)C(=O)NC(C)C)c1` [Compound 145], for which the EC50 was 127 to 250 nM and 205 to 236 nM in data set [1] (setting [3]); 212 nM in data set [1] (setting [4]). The same molecule had an RE in data set [1] (Tables 1-15) of 1.96.
Consider `COC(=O)/C=C/c1cccc(N(Cc2ccc(-c3ccc(C)cc3)cc2)C(=O)C(C)C)c1` [Compound 236], for which the EC50 in data set [1] (setting [4]) is 118 nM. The RE in data set [1] (Tables 1-15) came out at 1.48. In addition, the “FXR activation (in words)” value in data set [1] (cell-based reporter assay) is “excellent activity”.
On to `COC(=O)/C=C/c1cccc(N(Cc2ccc(/C=C/C(=O)OC(C)(C)C)cc2)C(=O)C2CCCC2)c1` [Compound 142], for which the EC50 in data set [1] (setting [3]) is 127 to 250 nM; in data set [1] (setting [4]) it was 162 nM. Moreover, the RE in data set [1] (Tables 1-15) is listed as 2.15. The “FXR activation (in words)” value in data set [1] (cell-based reporter assay) is given as “excellent activity”.
Consider `COC(=O)/C=C/c1cccc(N(Cc2ccc(/C=C/c3c(C)cc(C)cc3C)cc2)C(=O)NC(C)C)c1` [Compound 197], for which the half-maximal effective concentration (EC50) in data set [1] (setting [4]) stood at 431 nM. The molecule further yielded an RE in data set [1] (Tables 1-15) of 0.14.
For the molecule `COC(=O)/C=C/c1cccc(N(Cc2cc(OC)cc(OC)c2)C(=O)C2CCCCC2)c1` [Compound 118], in data set [1] (setting [3]), the EC50 worked out at 606 nM.
Consider `COC(=O)/C=C/c1cccc(N(Cc2ccc(-c3c(OC)cccc3OC)cc2)C(=O)C2CCCCC2)c1` [Compound 256], for which, in data set [1] (setting [4]), the EC50 was 77 nM. Further, the RE in data set [1] (Tables 1-15) came out at 0.12. In data set [1] (cell-based reporter assay), the “FXR activation (in words)” value is given as “excellent activity”.
For the molecule `COC(=O)C=Cc1cccc(N(Cc2ccc(C=Cc3ccccn3)cc2)C(=O)C(C)C)c1` [Compound 208], the EC50 in data set [1] (setting [4]) came to 310 nM. Moreover, in data set [1] (Tables 1-15), the RE is on record as 0.62.
For the molecule `COC(=O)/C=C/c1cccc(N(Cc2ccc(-c3cccc(OC(F)(F)F)c3)cc2)C(=O)NC(C)C)c1` [Compound 255], in data set [1] (setting [4]), the EC50 is over 10000 nM. In data set [1] (Tables 1-15), this molecule returned an RE of 0.09.
`COC(=O)/C=C/c1cccc(N(Cc2ccc(-c3cccc(C)c3)cc2)C(=O)C2CCCCC2)c1` [Compound 238]: the EC50 in data set [1] (setting [4]) amounted to 109 nM. In data set [1] (Tables 1-15), the RE is 1.43. Besides, in data set [1] (cell-based reporter assay), the “FXR activation (in words)” value is listed as “excellent activity”.
Turning to `COC(=O)/C=C/c1cccc(N(Cc2ccc(-c3ccc(F)c(Cl)c3)cc2)C(=O)NC(C)C)c1` [Compound 249], in data set [1] (setting [4]), the EC50 was determined as 3050 nM. The molecule also showed an RE in data set [1] (Tables 1-15) of 0.41.
Consider `COC(=O)/C=C/c1cccc(N(Cc2ccc(/C=C/c3c(Cl)cccc3Cl)cc2)C(=O)C2CCCCC2)c1` [Compound 177], for which the EC50 in data set [1] (setting [4]) turned out to be 150 nM. In data set [1] (Tables 1-15), this molecule registered an RE of 0.12. Besides, the “FXR activation (in words)” value in data set [1] (cell-based reporter assay) is listed as “excellent activity”.
As to `COC(=O)/C=C/c1ccc(N(Cc2ccc3c(c2OC)OC(C)(C)C=C3)C(=O)C2CC2)cc1` [Compound 53], in data set [1] (cell-based reporter assay), the “FXR activation (in words)” value is “does not activate FXR under the conditions tested”.
With `COC(=O)/C=C/c1cccc(N(Cc2cc(OC)cc(OC)c2)C(=O)C2CCCCC2)c1` [Compound 116], the RE in data set [1] (Tables 1-15) is given as 0.11.
With `COC(=O)/C=C/c1cccc(N(Cc2ccc(/C=C/c3cccc(Cl)c3)cc2)C(=O)NC(C)C)c1` [Compound 182], in data set [1] (setting [4]), the EC50 stood at 339 nM. Further, in data set [1] (Tables 1-15), the RE stood at 0.58.
Take `COC(=O)C=Cc1cccc(N(Cc2ccc(-c3ccc(C)s3)cc2)C(=O)C2CCCCC2)c1` [Compound 128]: in data set [1] (setting [3]), the EC50 amounted to 206 nM. Also, the RE in data set [1] (Tables 1-15) is 1.78.
